The target of data set [1] is T1, recombinant human ghrelin receptor (HEK293/GRLN) (Homo sapiens, UniProt Q92847).
T1 construct: expressed in transfected cells
The data set is described as follows: Ghrelin inverse agonist potency (EC50) with IP-1 (IP-One HTRF) assay. The settings on record: IP-1 assay, HEK293/GRLN; read-out: Activity EC50 (ghrelin inverse agonist potency). It counts as cell-based. The gist of the method: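 HEK293/GRLN cells were seeded 18-22 hours before the test, then exposed to compound in stimulation buffer for 1 hour at 37° C, 5% CO2. IP-1 was detected by IP-One HTRF (IP1-d2 plus Tb-cryptate, 1 hour RT), reading 620 and 665 nm; the inverse agonist EC50 was derived from this.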
(In general: In TR-FRET formats the signal depends on donor and acceptor labels being close together.)

The target in data set [2] is T2, GHSR-1a (HEK293/GHSR1a cell line) (Homo sapiens, UniProt Q92847).
T2 construct: expressed in transfected cells; host or cells: HEK293/GHSR1a cell line
T2 sequence (Q92847 whole entry): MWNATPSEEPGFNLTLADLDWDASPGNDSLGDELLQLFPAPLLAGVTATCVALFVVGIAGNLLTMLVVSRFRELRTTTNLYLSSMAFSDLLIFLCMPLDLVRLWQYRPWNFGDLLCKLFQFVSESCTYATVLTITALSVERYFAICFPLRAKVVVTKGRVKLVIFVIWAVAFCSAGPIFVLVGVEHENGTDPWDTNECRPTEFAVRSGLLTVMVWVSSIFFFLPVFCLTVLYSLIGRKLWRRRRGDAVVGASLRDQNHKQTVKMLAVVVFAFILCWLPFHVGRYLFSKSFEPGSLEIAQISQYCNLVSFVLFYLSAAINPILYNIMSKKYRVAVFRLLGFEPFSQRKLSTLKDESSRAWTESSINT
Description: Ghrelin agonist potency (EC50) with calcium FLIPR assay. The class given is cell-based. Conditions: HEK293/GHSR1a, read-out: Activity EC50/EMax: EC50 (ghrelin agonist potency). The gist of the method:
(§1)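 Cells seeded 24 h before the run were loaded with calcium dye for 30-60 min at room temperature or 37° C. For agonism, compound was added at t=20 sec and the calcium signal followed for 2 minutes. For antagonism, compound plus ghrelin (10 nM) went on at t=20 sec, and IC50 reflected the drop in ghrelin response.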

Data set [3] deals with T2, GHSR-1a (HEK293/GHSR1a cell line). The data set is described as follows: Ghrelin antagonist potency (IC50) with calcium FLIPR assay, ghrelin 10 nM. Conditions: HEK293/GHSR1a, ghrelin 10 nM, read-out: Activity IC50 (ghrelin antagonist potency). The class given is cell-based. The gist of the method:
as §1

Data set [4] is described as follows: Metabolic stability in human liver microsomes. The class given is in vitro ADME. The gist of the method: (§2)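 Test compounds were incubated with liver microsomes in 100 mM potassium phosphate buffer, pH 7.4, at 37 °C, with reactions started by an NADPH regenerating system after a 5 min preincubation. Samples taken at 0, 10, 30 and 90 min were quenched cold, centrifuged, and parent remaining was quantified by LC-MS/MS.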

Data set [5] can be described thus: Metabolic stability in mouse liver microsomes. It counts as in vitro ADME. The gist of the method:
as §2
On the technique in general: Liver microsomes are vesicles of endoplasmic reticulum, rich in cytochrome P450 enzymes.

Data set [6] is described as follows: Animal PK study in mouse via i.v., p.o. and s.c. administration. The class given is in vivo. The gist of the method:
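Single i.v. (tail vein), s.c. (neck scruff) or p.o. (gavage) dose to mice or rats; oral vehicle 1–5% DMSO/0.5% methylcellulose, i.v./s.c. vehicle 1–5% DMSO in 20% HP-β-cyclodextrin. Plasma sampled 0.083 (i.v./s.c.) or 0.25 to 24 h, analyzed by LC-MS/MS.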

The nature of data set [7]: Plasma protein binding (PPB), human. It counts as in vitro ADME. Conditions: read-out: PPB (H) (converted).
The nature of data set [8]: Plasma protein binding (PPB), mouse. The class given is in vitro ADME.
The nature of data set [9]: Plasma protein binding (PPB), rat. It counts as in vitro ADME. Conditions: read-out: PPB (R).
A short description of data set [10]: Plasma protein binding (PPB), dog. The class given is in vitro ADME. Conditions: read-out: PPB (D) (converted).

Consider one compound from patent publication US10501479B2, “Benzenesulfonyl-asymmetric ureas and medical uses thereof” (HELSINN HEALTHCARE SA, priority 2016, dated 2019).

Each structure is given as a SMILES string. Where two headings read alike, the source gives them in different places.

T1 sequence (Q92847 whole entry): as above

For orientation: IC50 means the concentration that gives 50% inhibition. On to `CC(NC(=O)Nc1ccc(S(=O)(=O)Nc2ccc3c(c2)CCN(C)C3)cc1)c1cccc(Cl)c1Cl` (stereo not shown) [H1333, 4-(3-(1-(2,3-dichlorophenyl)ethyl)ureido)-N-(2-methyl-1,2,3,4-tetrahydroisoquinolin-6-yl)benzenesulfonamide], for which the results for the EC50 in data set [1] and in data set [2] were 1.3 nM and greater than 30000 nM, respectively. Further, in data set [3], the IC50 was determined as 2.24 nM. Moreover, the “Metabolic Stability Study H = human” value in [4] worked out at 47.2 µL/min/mg. The “Metabolic Stability Study M = mouse” value in [5] is 54 µL/min/mg. For the same compound, the “PK F” value in data set [6] worked out at 2.08%. Also, in [6] (p.o.), the “PK CL p.o.” value is 1400 mL/min/kg. Moreover, the “PK Vd p.o.” value in [6] (p.o.) was 170 L/kg. The Vd in data set [6] (plasma, iv, 5 mg/kg) worked out at 3.26 L/kg. The clearance in data set [6] (plasma, iv, 5 mg/kg, i.v., read-out: PK CL i.v.) came out at 29.7 mL/min/kg. In addition, the half-life was found to be 1.27 h in data set [6] (plasma, iv, 5 mg/kg, i.v., read-out: PK t1/2 i.v.) and 1.4 h in data set [6] (plasma, po, 10 mg/kg, p.o., read-out: PK t1/2 p.o.). The fraction unbound in [7] was 0.0011; in data set [8], 0.0006; in data set [9] it was 0.001; in data set [10], 0.0015.
